Results taken from US9642889B2, “Macrocyclic inhibitors of Flaviviridae viruses” (Selcia Limited, priority 2012, dated 2017).
Where two headings read alike, the source gives them in different places.

Experiments:
cyclophilin A = cyclophilin A (Homo sapiens, UniProt P62937); test: Cyclophilin A TR-FRET competitive binding assay; conditions: competition with CsA-Cy5 for His-tagged CypA, two-hour incubation
Protocol: Cyclophilin A TR-FRET Competitive Binding Assay
Inhibitor potency was measured using a competitive binding assay with a time-resolved fluorescence resonance energy transfer (TR-FRET) readout. […] An IC50 value was calculated using a four-parameter logistic fit.

[1] = tested on: Huh-7 HCV replicon cells (1b replicon); test: anti-HCV activity in Huh-7 cell line harboring a HCV replicon (luciferase readout); type: cell-based; conditions: for Replicon 1b % inhibition at 1 μM: 1b replicon, 1 μM compound
[2] = inhibition of viral replication, Huh-7 HCV replicon cells, 3 days, read-out: EC50
[3] = Hepatitis C virus, Huh-7, 72 h, inhibition of viral replication, Huh-7 HCV replicon cells, 3 days, read-out: EC50
[4] = Hepatitis C virus, Huh-7, read-out: Replicon 1b % inhibition at 1 μM, 1b replicon, 1 μM compound

Chain of cyclophilin A (P62937 whole entry, species assumed): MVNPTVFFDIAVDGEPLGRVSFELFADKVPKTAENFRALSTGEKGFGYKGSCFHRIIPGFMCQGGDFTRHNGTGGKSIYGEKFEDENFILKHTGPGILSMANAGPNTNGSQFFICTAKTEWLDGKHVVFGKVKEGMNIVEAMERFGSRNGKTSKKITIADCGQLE

Row | SMILES | IC50 (cyclophilin A) [nM] | EC50 [1, 3] [nM] | inhibition at 1 µM [1, 4] [%] | further results
1 | CC1/C=C/c2ccc3ccc(nc3c2)[C@@H](C)OC(=O)[C@@H]2CCCN(N2)C(=O)[C@H](C)NC(=O)[C@H](C(C)C)OC1 (single isomer, unassigned) [Compound 28] | < 100 |  |  | Replicon 1b % inhibition at 1 μM [1]: 99%; EC50 [1, 2]: < 1000 nM
2 | CC1NC(=O)C(C(C)C)OC(=O)C2(/C=C/c3ccc4ccc(nc4c3)C(C)NC(=O)C3CCCN(N3)C1=O)CCC(O)CC2 (single isomer, unassigned) [Compound 75] |  |  |  | Replicon 1b % inhibition at 1 μM [1]: 100%; EC50 [1, 2]: < 1000 nM
3 | CC(C)[C@@H]1OC(=O)C/C=C/c2cc3cc(ccc3cn2)[C@@H](C)NC(=O)[C@@H]2CCCN(N2)C(=O)[C@H](C)NC1=O [Compound 3] | < 100 | < 1000 | 89 | 
4 | CC(C)[C@@H]1OC(=O)C2(/C=C/c3ccc4ccc(nc4c3)[C@@H](C)NC(=O)[C@@H]3CCCN(N3)C(=O)[C@H](C)NC1=O)COC(=O)OC2 [Compound 98] | < 100 | < 1000 | 90 | 
5 | C[C@@H]1NC(=O)[C@H](C(C)(C)C)OC(=O)C(C)(C)/C=C/c2ccc3ccc(nc3c2)[C@@H](C)NC(=O)[C@@H]2CCCN(N2)C1=O [Compound 70] | 1000 to 10000 | < 1000 | 57 | 
6 | CC(=O)CC[C@@H]1C/C=C/c2cc3cc(ccc3cn2)[C@@H](C)NC(=O)[C@@H]2CCCN(N2)C(=O)[C@H](C)NC(=O)[C@H](C(C)C)OC1=O (mixture of isomers) [Compound 14] | < 100 | < 1000 | 100 | 
7 | C[C@@H]1NC(=O)[C@H](C(C)(C)F)OC(=O)C2(/C=C/c3ccc4ccc(nc4c3)[C@@H](C)NC(=O)[C@@H]3CCCN(N3)C1=O)COCOC2 [Compound 72] | 1000 to 10000 | 1100 to 10000 | -6 | 
8 | C[C@@H]1NC(=O)[C@@H](C2CC2)OC(=O)C(C)(C)/C=C/c2ccc3ccc(nc3c2)[C@@H](C)NC(=O)[C@@H]2CCCN(N2)C1=O [Compound 79] | 1000 to 10000 | 1100 to 10000 | 3 | 
9 | C[C@@H]1NC(=O)[C@H](C2CCOCC2)OC(=O)C(C)(C)/C=C/c2ccc3ccc(nc3c2)[C@@H](C)NC(=O)[C@@H]2CCCN(N2)C1=O [Compound 67] | 101 to 1000 | < 1000 | 67 | 
10 | CC(C)[C@@H]1OC(=O)[C@@](C)(COC(F)(F)F)/C=C/c2ccc3ccc(nc3c2)[C@@H](C)NC(=O)[C@@H]2CCCN(N2)C(=O)[C@H](C)NC1=O [Compound 56] | < 100 | < 1000 | 99 | 
11 | CC(C)[C@@H]1OC(=O)C2(/C=C/c3ccc4ccc(nc4c3)[C@@H](C)NC(=O)[C@@H]3CCCN(N3)C(=O)[C@H](C)NC1=O)CCS(=O)(=O)CC2 [Compound 106] |  | < 1000 | 95 | 
12 | C[C@@H]1NC(=O)[C@H]([C@@H](C)O)OC(=O)C(C)(C)/C=C/c2ccc3ccc(nc3c2)[C@@H](C)NC(=O)[C@@H]2CCCN(N2)C1=O [Compound 87] | < 100 | < 1000 | 61 | 
13 | CC1/C=C/c2ccc3ccc(nc3c2)[C@@H](C)NC(=O)[C@@H]2CCCN(N2)C(=O)[C@H](C)NC(=O)[C@H](C(C)C)OC1 (single isomer, unassigned) [Compound 34] | < 100 | < 1000 | 91 | 
14 | CC(=O)O[C@H]1CC[C@]2(/C=C/c3ccc4ccc(nc4c3)[C@@H](C)NC(=O)[C@@H]3CCCN(N3)C(=O)[C@H](C)NC(=O)[C@H](C(C)C)OC2=O)CC1 [Compound 112] | < 100 | < 1000 | 100 | 
15 | CC(C)[C@@H]1OC(=O)C2(/C=C/c3ccc4ccc(nc4c3)[C@@H](C)NC(=O)[C@@H]3CCCN(N3)C(=O)[C@H](C)NC1=O)CCCCO2 (mixture of isomers) [Compound 49] | < 100 | < 1000 | 100 | 
16 | CC(C)[C@@H]1OC(=O)C2(/C=C/c3ccc4ccc(nc4c3)[C@@H](C)NC(=O)[C@@H]3CCCN(N3)C(=O)[C@H](C)NC1=O)COC(CF)(CF)OC2 [Compound 107] | < 100 | < 1000 | 100 | 
17 | CC(C)[C@@H]1OC(=O)C(C)(C)/C=C/c2cc3cc(ccc3cn2)[C@@H](C)NC(=O)[C@@H]2CCCN(N2)C(=O)[C@H](C)NC1=O [Compound 69] |  | < 1000 | 100 | 
18 | CC1/C=C/c2cc3cc(ccc3cn2)[C@@H](C)NC(=O)[C@@H]2CCCN(N2)C(=O)[C@H](C)NC(=O)[C@H](C(C)C)OC(=O)C1C (stereo partly shown) [Compound 11] | < 100 | < 1000 | 96 | 
19 | CC(C)[C@@H]1OC(=O)C(CF)(CF)/C=C/c2ccc3ccc(nc3c2)[C@@H](C)NC(=O)[C@@H]2CCCN(N2)C(=O)[C@H](C)NC1=O [Compound 99] | < 100 | < 1000 | 100 | 
20 | CC(C)[C@@H]1OC(=O)C2(/C=C/c3ccc4ccc(nc4c3)[C@@H](C)NC(=O)[C@@H]3CCCN(N3)C(=O)[C@H](C)NC1=O)CCOC2 (stereo partly shown) [Compound 73] | < 100 | < 1000 | 97 | 

Row | SMILES | IC50 (cyclophilin A) [nM] | EC50 [1, 3] [nM] | inhibition at 1 µM [1, 4] [%] | further results
21 | CC1NC(=O)C(C(C)C)OC(=O)C2(/C=C/c3ccc4ccc(nc4c3)C(C)NC(=O)C3CCCN(N3)C1=O)CCC(O)CC2 (single isomer, unassigned) [Compound 74] |  | < 1000 |  | Replicon 1b % inhibition at 1 μM [1]: 100%
22 | C[C@@H]1NC(=O)[C@H](CC(F)F)OC(=O)C(C)(C)/C=C/c2ccc3ccc(nc3c2)[C@@H](C)NC(=O)[C@@H]2CCCN(N2)C1=O [Compound 62] | < 100 | < 1000 | 84 | 
23 | CC1NC(=O)C(C(C)C)OC(=O)C2(/C=C/c3ccc4ccc(nc4c3)C(C)NC(=O)C3CCCN(N3)C1=O)CCC(O)CC2 (single isomer, unassigned) [Compound 76] |  |  |  | Replicon 1b % inhibition at 1 μM [1]: 69%; EC50 [1, 2]: < 1000 nM
24 | CO[C@@H]1CC/C=C/c2cccc(c2)[C@@H](C)NC(=O)[C@@H]2CCCN(N2)C(=O)[C@H](C)NC(=O)[C@H](C(C)C)OC(=O)[C@@H]1C [Compound 1] | < 100 | < 1000 | 97 | 
25 | CC1NC(=O)C(C2CC2)OC(=O)C2(C=Cc3ccc4ccc(nc4c3)C(C)NC(=O)C3CCCN(N3)C1=O)CCC(O)C2 (single isomer, unassigned) [Compound 105] | 101 to 1000 |  |  | Replicon 1b % inhibition at 1 μM [1]: 2%; EC50 [1, 2]: 1100 to 10000 nM
26 | CO[C@@H]1/C=C/c2cc3cc(ccc3cn2)[C@@H](C)NC(=O)[C@@H]2CCCN(N2)C(=O)[C@H](C)NC(=O)[C@H](C(C)C)OC(=O)[C@@H]1C [Compound 2] | < 100 | < 1000 | 98 | 
27 | CC(C)[C@@H]1OC(=O)C2(/C=C/c3ccc4ccc(nc4c3)[C@@H](C)NC(=O)[C@@H]3CCCN(N3)C(=O)[C@H](C)NC1=O)CN(S(C)(=O)=O)CCO2 (stereo partly shown) [Compound 97] | < 100 | < 1000 | 96 | 
28 | CC(C)[C@@H]1OC(=O)C2(/C=C/c3ccc4ccc(nc4c3)[C@@H](C)NC(=O)[C@@H]3CCCN(N3)C(=O)[C@H](C)NC1=O)COCCOC2 [Compound 57] |  | < 1000 | 100 | 
29 | CC(C)[C@@H]1OC(=O)C2(/C=C/c3ccc4ccc(nc4c3)[C@@H](C)NC(=O)[C@@H]3CCCN(N3)C(=O)[C@H](C)NC1=O)CN(C(=O)OC(C)(C)C)CCO2 (single isomer, unassigned) [Compound 45] | < 100 |  |  | 
30 | CC(C)[C@@H]1OC(=O)C(C)(C)/C=C/c2ccc3ccc(nc3c2)CNC(=O)[C@@H]2CCCN(N2)C(=O)[C@H](C)NC1=O [Compound 37] | < 100 |  |  | 
31 | CC(C)[C@@H]1OC(=O)C(C)(C)/C=C/c2ccc3ccc(nc3c2)CN(C)C(=O)[C@@H]2CCCN(N2)C(=O)[C@H](C)NC1=O [Compound 33] | < 100 |  |  | 
32 | CC(C)[C@H]1C(=O)N[C@@H](C)C(=O)N2CCC[C@H](N2)C(=O)O[C@H](C)c2ccc3cnc(cc3c2)/C=C/C(C)(C)C(=O)N1C [Compound 22] | < 100 |  |  | 
33 | COC[C@]1(C)/C=C/c2ccc3ccc(nc3c2)[C@@H](C)NC(=O)[C@@H]2CCCN(N2)C(=O)[C@H](C)NC(=O)[C@H](C(C)C)OC1=O [Compound 58] | < 100 |  |  | 
34 | C[C@@H]1NC(=O)[C@H](C2CCC2)OC(=O)C2(/C=C/c3ccc4ccc(nc4c3)[C@@H](C)NC(=O)[C@@H]3CCCN(N3)C1=O)COCOC2 [Compound 64] |  |  |  | EC50 ([1]; Hepatitis C virus, Huh-7, 72 h): < 1000 nM; inhibition at 1 µM ([1]; Hepatitis C virus, Huh-7, read-out: Replicon 1b % inhibition at 1 μM): 100%
35 | COC[C@@]1(C)/C=C/c2ccc3ccc(nc3c2)[C@@H](C)NC(=O)[C@@H]2CCCN(N2)C(=O)[C@H](C)NC(=O)[C@H](C(C)C)OC1=O [Compound 36] | < 100 |  |  | 
36 | COC[C@@]1(C)/C=C/c2ccc3ccc(nc3c2)[C@@H](C)N(C)C(=O)[C@@H]2CCCN(N2)C(=O)[C@H](C)NC(=O)[C@H](C(C)C)OC1=O [Compound 38] | < 100 |  |  | 
37 | CC(C)[C@@H]1OC(=O)C(C)(C)/C=C/c2ccc3ccc(nc3c2)[C@@H](C)OC(=O)[C@@H]2CCCN(N2)C(=O)[C@H](C)NC1=O [Compound 19] | < 100 |  |  | 
38 | CC(C)[C@@H]1OC(=O)C2(/C=C/c3ccc4ccc(nc4c3)[C@@H](C)NC(=O)[C@@H]3CCCN(N3)C(=O)[C@H](C)NC1=O)CCOCC2 [Compound 88] |  | < 1000 | 100 | 
39 | CC1NC(=O)C(C(C)C)OC(=O)C2(/C=C/c3ccc4ccc(nc4c3)C(C)NC(=O)C3CCCN(N3)C1=O)CCC(O)CC2 (single isomer, unassigned) [Compound 77] |  |  |  | Replicon 1b % inhibition at 1 μM [1]: 56%; EC50 [1, 2]: < 1000 nM
40 | COC1CCC2(/C=C/c3ccc4ccc(nc4c3)[C@@H](C)NC(=O)[C@@H]3CCCN(N3)C(=O)[C@H](C)NC(=O)[C@H](C(C)C)OC2=O)CC1 (stereo partly shown) [Compound 92] |  | < 1000 | 100 | 
